Our source for the IC50 values is patent US7432392B2, “Ester derivatives and medical use thereof” (Japan Tobacco Inc., priority 2003, dated 2008).

The experiment relates to apolipoprotein B secretion from HepG2 cells. Kind of experiment: Inhibition of apolipoprotein B secretion from HepG2 cells. The following applies: Homo sapiens, about 20 hours incubation, apo B in supernatant by ELISA. The experiment is classed as cell-based. As for the experimental part: HepG2 cells were suspended in Dulbecco's Modified Eagle's Medium (DMEM) (containing 10% fetal bovine serum, 100 units/mL penicillin and 100 μg/mL streptomycin), and placed on a 96-well plate (4×10^4 cells/well), then incubated for 24 hours. After removal of the medium, DMEM was replaced by a medium containing a sample dissolved in DMSO or a medium containing DMSO (concentration of DMSO: 0.5%) and incubation was further performed for about 20 hours, after which the supernatant was recovered, and concentration of apo B in the supernatant was assayed by Enzyme-Linked Immunosorbent Assay (ELISA)
ELISA was carried out as follows. Anti-human apo B monoclonal antibody (0.5 μg/well) diluted with a 50 mM sodium carbonate/sodium bicarbonate buffer was placed in a 96-well plate for ELISA, and allowed to stand at room temperature for 15 hours. After washing the plate, a blocking solution (250 μL/well) was placed in the well, and allowed to stand at room temperature for 1.5 hours. After washing the plate, a standard and a sample (100 μL/well) were placed in the well and allowed to stand at room temperature for 1.5 hours. The standard was prepared by adjusting the concentration of the purified human apo B with the DMEM to 0 to 250 ng/mL. After washing the plate, an anti-human apo B polyclonal antibody labeled with a horse radish peroxidase which was diluted in 1:1000 with DEME (100 μL/well) was added, and allowed to stand at room temperature for 1.5 hours. After washing the plate, 2,2-azinobis(3-ethylbenzothiazoline-6-sulfonic acid) solution (100 μL/well) was placed in the well, and allowed to stand at room temperature for 0.5 hour. The reaction was stopped by addition of 2% oxalic acid (100 μL/well), and absorbency at 405 nm was measured. Concentration of apo B in the sample was calculated on the basis of a standard curve of the standard. Inhibition rate (%) was calculated from the assayed values in accordance with the following equation. Inhibition rate (%)=100×(1 minus (concentration of apo B in sample group/concentration of apo B in DMSO group).
Based on the above equation, 50% inhibition concentration (IC50) was determined.

In general, pIC50 refers to −log10 of the IC50, conventionally taken in molar units.

pIC50: −log10 of the molar value.

On to `CCOC(=O)C(COC(=O)Cc1ccc(NC(=O)c2ccccc2-c2ccc(C(F)(F)F)cc2)c(OC(C)=O)c1)(C(=O)OCC)c1ccccc1` [Example 1, 2-(2-{3-acetoxy-4-[(4′-trifluoromethyl-biphenyl-2-carbonyl)amino]phenyl}acetoxymethyl)-2-phenylmalonic acid diethyl ester], for which the negative-log IC50 (pIC50) was above 6.00.
